The target of one experiment is T1, C-CBL (residues 46-435) (Homo sapiens, UniProt P22681).
T1 construct: Purified CBL-B (residues 36-427) and C-CBL (residues 46-435) proteins from baculovirus-infected insect cells; made in house; host or cells: baculovirus-infected insect cells
T1 sequence (P22681 46-435): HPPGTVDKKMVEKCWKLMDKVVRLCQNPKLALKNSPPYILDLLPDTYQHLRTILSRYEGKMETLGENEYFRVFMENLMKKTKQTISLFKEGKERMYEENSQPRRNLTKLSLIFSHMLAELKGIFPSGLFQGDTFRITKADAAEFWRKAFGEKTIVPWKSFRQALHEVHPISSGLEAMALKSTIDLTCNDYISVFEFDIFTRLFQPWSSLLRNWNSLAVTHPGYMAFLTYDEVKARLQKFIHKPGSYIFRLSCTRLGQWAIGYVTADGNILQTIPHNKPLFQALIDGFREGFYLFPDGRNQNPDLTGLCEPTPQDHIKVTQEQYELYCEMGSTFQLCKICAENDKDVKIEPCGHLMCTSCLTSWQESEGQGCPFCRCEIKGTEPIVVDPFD
In words: Ligand Displacement Assay (LDA), HTRF competitive binding against BODIPY-labeled fluorescent tracer, C-CBL. The conditions noted are these: geometric mean of the number of tests, read-out: C-CBL Ki (nM) GMean. In short, it runs like this: (§1)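 Insect-cell (baculovirus) protein, N-term AviTag biotinylated via BirA, captured by SA-Tb; BODIPY tracer, KD measured per protein. 3-fold serial dilutions, duplicate, […], 2% DMSO final. Ki (nM) = geomean of runs.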
On the technique in general: In TR-FRET formats the signal depends on donor and acceptor labels being close together.

For a further experiment, the target named is T2, WT CBL-B (36-427) (Homo sapiens, UniProt Q13191).
T2 construct: N-terminal biotinylated WT CBL-B (36-427) and C-CBL (46-435) were captured on a streptavidin (SA) coated sensor chip
In words: Surface Plasmon Resonance (SPR) assay, binding affinity and kinetics, CBL-B. Conditions: SPR at 10° C., biotinylated WT CBL-B (36-427) on streptavidin chip; geometric mean; read-out: CBL-B SPR Kd (nM) GMean. In short, it runs like this:
(§2)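 Biotinylated WT CBL-B (36-427) or C-CBL (46-435) captured on streptavidin chip (~5000–6000 RU); binding at 10° C in HEPES buffer pH 7.2 with 2% DMSO. Multi-cycle: 2-fold, 10-point series from 10 or 100 μM, 90 s association. Single-cycle: 3-fold, 6-point, 0.001–1 μM, 120 s association, >5400 s dissociation.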

The target in another experiment is T3, CBL-B (residues 36-427) (Homo sapiens, UniProt Q13191).
T3 construct: Purified CBL-B (residues 36-427) and C-CBL (residues 46-435) proteins from baculovirus-infected insect cells; made in house; host or cells: baculovirus-infected insect cells
The experiment in a line: Ligand Displacement Assay (LDA), HTRF competitive binding against BODIPY-labeled fluorescent tracer, CBL-B. Conditions: geometric mean of the number of tests, read-out: CBL-B Ki (nM) GMean. Put shortly:
as §1

In the next experiment the target is T4, C-CBL (46-435) (Homo sapiens, UniProt P22681).
T4 construct: N-terminal biotinylated WT CBL-B (36-427) and C-CBL (46-435) were captured on a streptavidin (SA) coated sensor chip
T4 sequence (P22681 46-435): T1 sequence (P22681 46-435)
The experiment in a line: Surface Plasmon Resonance (SPR) assay, binding affinity and kinetics, C-CBL. Conditions: SPR at 10° C., biotinylated C-CBL (46-435) on streptavidin chip; geometric mean; read-out: C-CBL SPR Kd (nM) GMean. In short, it runs like this:
as §2

Each structure is given as a SMILES string.

A word on the Ki: it is the equilibrium dissociation constant of an inhibitor or competing ligand from its target. A word on the Kd: it is a measure of binding affinity in units of concentration.

As to `Cn1cnnc1CC1(c2cccc(-c3n[nH]c4c(CN5CCC(F)(F)C5)nc(C(F)(F)F)cc34)c2)COC1` [Example C70, 7-[(3,3-difluoropyrrolidin-1-yl)methyl]-3-(3-{3-[(4-methyl-4H-1,2,4-triazol-3-yl)methyl]oxetan-3-yl}phenyl)-5-(trifluoromethyl)-1H-pyrazolo[3,4-c]pyridine], the values for the Ki on C-CBL (residues 46-435) and on CBL-B (residues 36-427) were 113 nM and 20.6 nM, respectively. The dissociation constant Kd at WT CBL-B (36-427) was determined as 6 nM; at C-CBL (46-435) it was 80 nM.

Take `Cn1cnnc1CC1(c2cccc(-c3n[nH]c4c(CN5CC[C@@H](F)C5)nc(C(F)(F)F)cc34)c2)COC1` [Example C71, 7-{[(3R)-3-fluoropyrrolidin-1-yl]methyl}-3-(3-{3-[(4-methyl-4H-1,2,4-triazol-3-yl)methyl]oxetan-3-yl}phenyl)-5-(trifluoromethyl)-1H-pyrazolo[3,4-c]pyridine]: the figures for the Ki at C-CBL (residues 46-435) and on CBL-B (residues 36-427) were 124 nM and 25.5 nM, respectively. Besides, the values for the Kd at WT CBL-B (36-427) and on C-CBL (46-435) were 10.8 nM and 108 nM, respectively.

Take `C[C@@H]1CN(Cc2nc(C(F)(F)F)cc3c(-c4cccc(C5(Cc6nncn6C)COC5)c4)n[nH]c23)CCO1` [Example C72, 7-{[(2R)-2-methylmorpholin-4-yl]methyl}-3-(3-{3-[(4-methyl-4H-1,2,4-triazol-3-yl)methyl]oxetan-3-yl}phenyl)-5-(trifluoromethyl)-1H-pyrazolo[3,4-c]pyridine]: the inhibition constant Ki at C-CBL (residues 46-435) is 83.3 nM; at CBL-B (residues 36-427) it was 18.6 nM. Moreover, the Kd at WT CBL-B (36-427) turned out to be 2.3 nM; on C-CBL (46-435) it was 63.1 nM.

Regarding `Cn1cnnc1CC1(c2cccc(-c3n[nH]c4c(CN5CC[C@H](F)C5)nc(C(F)(F)F)cc34)c2)COC1` [Example C73, 7-{[(3S)-3-fluoropyrrolidin-1-yl]methyl}-3-(3-{3-[(4-methyl-4H-1,2,4-triazol-3-yl)methyl]oxetan-3-yl}phenyl)-5-(trifluoromethyl)-1H-pyrazolo[3,4-c]pyridine], the inhibition constant (Ki) on C-CBL (residues 46-435) worked out at 111 nM; at CBL-B (residues 36-427) it was 19.3 nM. Besides, the equilibrium dissociation constant (Kd) amounted to 9 nM at WT CBL-B (36-427) and 94 nM at C-CBL (46-435).

As to `Cn1cnnc1[C@@H](c1cccc(-c2n[nH]c3c(CN4C[C@@H](O)[C@H](O)C4)nc(C(F)(F)F)cc23)c1)C1CCC1` [Example C74, (3R,4R)-1-{[3-{3-[(R)-cyclobutyl(4-methyl-4H-1,2,4-triazol-3-yl)methyl]phenyl}-5-(trifluoromethyl)-1H-pyrazolo[3,4-c]pyridin-7-yl]methyl}pyrrolidine-3,4-diol], the inhibitory constant (Ki) was determined as 83.1 nM at C-CBL (residues 46-435) and 7.5 nM on CBL-B (residues 36-427). Further, the Kd on WT CBL-B (36-427) amounted to 3.2 nM; at C-CBL (46-435), 103 nM.

As to `Cn1cnnc1[C@@H](c1cccc(-c2n[nH]c3c(CN4C[C@@H](O)[C@@H](O)C4)nc(C(F)(F)F)cc23)c1)C1CCC1` [Example C75, (3R,4S)-1-{[3-{3-[(R)-cyclobutyl(4-methyl-4H-1,2,4-triazol-3-yl)methyl]phenyl}-5-(trifluoromethyl)-1H-pyrazolo[3,4-c]pyridin-7-yl]methyl}pyrrolidine-3,4-diol], the figures for the Ki at C-CBL (residues 46-435) and at CBL-B (residues 36-427) were 54.8 nM and 5 nM, respectively. For the same compound, the figures for the dissociation constant (Kd) on WT CBL-B (36-427) and at C-CBL (46-435) were 4.7 nM and 97.9 nM, respectively.

With `Cn1cnnc1[C@@H](c1cccc(-c2n[nH]c3c(CN4C[C@H](O)[C@@H](O)C4)nc(C(F)(F)F)cc23)c1)C1CCC1` [Example C76, (3S,4S)-1-{[3-{3-[(R)-cyclobutyl(4-methyl-4H-1,2,4-triazol-3-yl)methyl]phenyl}-5-(trifluoromethyl)-1H-pyrazolo[3,4-c]pyridin-7-yl]methyl}pyrrolidine-3,4-diol], the Ki worked out at 41.4 nM on C-CBL (residues 46-435) and 3.3 nM at CBL-B (residues 36-427). In addition, the Kd on WT CBL-B (36-427) was 2.5 nM; on C-CBL (46-435), 52.1 nM.

Take `Cn1cnnc1[C@@H](c1cccc(-c2n[nH]c3c(CN4CC[C@H](O)C4)nc(C(F)(F)F)cc23)c1)C1CCC1` [Example C77, (3S)-1-{[3-{3-[(R)-cyclobutyl(4-methyl-4H-1,2,4-triazol-3-yl)methyl]phenyl}-5-(trifluoromethyl)-1H-pyrazolo[3,4-c]pyridin-7-yl]methyl}pyrrolidin-3-ol]: the Ki amounted to 29.5 nM on C-CBL (residues 46-435) and 2.4 nM at CBL-B (residues 36-427). In addition, the Kd on WT CBL-B (36-427) was 2.5 nM; at C-CBL (46-435), 54.9 nM.

In the case of `Cn1cnnc1CC1(c2cccc(-c3n[nH]c4c(CNC5CC(F)(F)C5)nc(C(F)(F)F)cc34)c2)COC1` [Example C78, 3,3-difluoro-N-{[3-(3-{3-[(4-methyl-4H-1,2,4-triazol-3-yl)methyl]oxetan-3-yl}phenyl)-5-(trifluoromethyl)-1H-pyrazolo[3,4-c]pyridin-7-yl]methyl}cyclobutan-1-amine], the Ki at C-CBL (residues 46-435) is 253 nM; on CBL-B (residues 36-427) it was 56.6 nM. The Kd at WT CBL-B (36-427) is 10 nM; on C-CBL (46-435) it was 144 nM.

In the case of `CNCc1nc(C(F)(F)F)cc2c(-c3cccc([C@H](c4nncn4C)C4CCC4)c3)n[nH]c12` [Example C103, 1-[3-{3-[(R)-cyclobutyl(4-methyl-4H-1,2,4-triazol-3-yl)methyl]phenyl}-5-(trifluoromethyl)-1H-pyrazolo[3,4-c]pyridin-7-yl]-N-methylmethanamine], the inhibitory constant (Ki) on C-CBL (residues 46-435) amounted to 389 nM; on CBL-B (residues 36-427), 46 nM. For the same compound, the Kd on WT CBL-B (36-427) turned out to be 20.5 nM; on C-CBL (46-435) it was 349 nM.

On to `Cn1cnnc1[C@@H](c1cccc(-c2n[nH]c3c(CN[C@@H]4CCOC4)nc(C(F)(F)F)cc23)c1)C1CCC1` [Example C104, (3R)-N-{[3-{3-[(R)-cyclobutyl(4-methyl-4H-1,2,4-triazol-3-yl)methyl]phenyl}-5-(trifluoromethyl)-1H-pyrazolo[3,4-c]pyridin-7-yl]methyl}oxolan-3-amine], for which the Ki at C-CBL (residues 46-435) came to 218 nM; at CBL-B (residues 36-427), 28 nM. For the same compound, the Kd at WT CBL-B (36-427) was 8.2 nM; on C-CBL (46-435), 328 nM.

In the case of `Cn1cnnc1[C@@H](c1cccc(-c2n[nH]c3c(CNC4CCC4)nc(C(F)(F)F)cc23)c1)C1CCC1` [Example C105, N-{[3-{3-[(R)-cyclobutyl(4-methyl-4H-1,2,4-triazol-3-yl)methyl]phenyl}-5-(trifluoromethyl)-1H-pyrazolo[3,4-c]pyridin-7-yl]methyl}cyclobutanamine], the values for the inhibitory constant (Ki) on C-CBL (residues 46-435) and on CBL-B (residues 36-427) were 244 nM and 29.4 nM, respectively. Moreover, the equilibrium dissociation constant (Kd) on WT CBL-B (36-427) was found to be 4.2 nM; at C-CBL (46-435), 132 nM.

Consider `Cn1cnnc1[C@@H](c1cccc(-c2n[nH]c3c(CN4CC(F)C4)nc(C(F)(F)F)cc23)c1)C1CCC1` [Example C106, 3-{3-[(R)-cyclobutyl(4-methyl-4H-1,2,4-triazol-3-yl)methyl]phenyl}-7-[(3-fluoroazetidin-1-yl)methyl]-5-(trifluoromethyl)-1H-pyrazolo[3,4-c]pyridine], for which the inhibition constant Ki at C-CBL (residues 46-435) was 475 nM; at CBL-B (residues 36-427), 41.6 nM. The results for the equilibrium dissociation constant (Kd) at WT CBL-B (36-427) and at C-CBL (46-435) were 5.9 nM and 265 nM, respectively.

Take `Cn1cnnc1[C@@H](c1cccc(-c2n[nH]c3c(CN4C[C@@H](F)[C@@H](F)C4)nc(C(F)(F)F)cc23)c1)C1CCC1` [Example C107, 3-{3-[(R)-cyclobutyl(4-methyl-4H-1,2,4-triazol-3-yl)methyl]phenyl}-7-{[(3R,4S)-3,4-difluoropyrrolidin-1-yl]methyl}-5-(trifluoromethyl)-1H-pyrazolo[3,4-c]pyridine]: the Ki on C-CBL (residues 46-435) came out at 363 nM; on CBL-B (residues 36-427), 33.9 nM. Further, the figures for the dissociation constant (Kd) at WT CBL-B (36-427) and on C-CBL (46-435) were 3.7 nM and 158 nM, respectively.

As for `C[C@@H]1CCCN(Cc2nc(C(F)(F)F)cc3c(-c4cccc([C@H](c5nncn5C)C5CCC5)c4)n[nH]c23)C1` [Example C108, 3-{3-[(R)-cyclobutyl(4-methyl-4H-1,2,4-triazol-3-yl)methyl]phenyl}-7-{[(3R)-3-methylpiperidin-1-yl]methyl}-5-(trifluoromethyl)-1H-pyrazolo[3,4-c]pyridine], the inhibition constant Ki was 630 nM at C-CBL (residues 46-435) and 79.4 nM at CBL-B (residues 36-427). In addition, the Kd on WT CBL-B (36-427) was found to be 5.5 nM; on C-CBL (46-435) it was 148 nM.

For the compound `Cn1cnnc1[C@@H](c1cccc(-c2n[nH]c3c(CN4CC[C@@H](F)C4)nc(C(F)(F)F)cc23)c1)C1CCC1` [Example C109, 3-{3-[(R)-cyclobutyl(4-methyl-4H-1,2,4-triazol-3-yl)methyl]phenyl}-7-{[(3R)-3-fluoropyrrolidin-1-yl]methyl}-5-(trifluoromethyl)-1H-pyrazolo[3,4-c]pyridine], the figures for the Ki at C-CBL (residues 46-435) and at CBL-B (residues 36-427) were 442 nM and 48.8 nM, respectively. The Kd on WT CBL-B (36-427) was 8.8 nM; on C-CBL (46-435) it was 174 nM.

(Values after patent publication US20260125375A1 (Pfizer Inc., priority 2022, published 2026).)
